From ChEMBL document CHEMBL5352481, “Discovery of small-molecule protein stabilizers toward exogenous alpha-l-iduronidase to reduce the accumulated heparan sulfate in mucopolysaccharidosis type I cells” (Eur J Med Chem, 2023)
Calls of active or inactive are those of the source. The rule behind the calls is not given here.

Experiments:
Alpha-L-iduronidase [1] = biological target: T1, Alpha-L-iduronidase (Homo sapiens, UniProt P35475); assay: Inhibition of human alpha-L-iduronidase using 4-methylumbelliferyl-alpha-L-iduronide as substrate assessed as inhibition constant
T1 sequence (P35475 whole entry): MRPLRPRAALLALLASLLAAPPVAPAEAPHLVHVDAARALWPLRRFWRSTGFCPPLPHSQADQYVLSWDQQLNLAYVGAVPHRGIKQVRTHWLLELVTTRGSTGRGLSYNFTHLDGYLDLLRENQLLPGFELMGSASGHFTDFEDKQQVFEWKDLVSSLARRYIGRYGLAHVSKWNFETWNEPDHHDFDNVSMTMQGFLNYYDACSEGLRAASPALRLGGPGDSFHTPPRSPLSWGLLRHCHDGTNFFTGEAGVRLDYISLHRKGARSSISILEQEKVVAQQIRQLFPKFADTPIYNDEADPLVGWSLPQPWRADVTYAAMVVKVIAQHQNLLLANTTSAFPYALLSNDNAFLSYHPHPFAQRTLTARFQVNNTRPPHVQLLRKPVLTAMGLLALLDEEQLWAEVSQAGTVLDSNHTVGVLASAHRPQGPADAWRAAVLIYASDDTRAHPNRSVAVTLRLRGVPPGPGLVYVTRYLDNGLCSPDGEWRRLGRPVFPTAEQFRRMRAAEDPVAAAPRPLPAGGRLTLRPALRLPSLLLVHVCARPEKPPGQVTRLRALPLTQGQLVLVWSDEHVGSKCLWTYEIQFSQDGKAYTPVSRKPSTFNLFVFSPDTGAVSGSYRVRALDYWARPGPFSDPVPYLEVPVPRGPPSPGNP

[2] = biological target: T2, Alpha-L-iduronidase (Homo sapiens) (UniProt P35475); assay: Inhibition of human recombinant alpha-L-iduronidase using 4-methylumbelliferyl-alpha-iduronide as fluorogenic substrate at 250 uM relative to control
T2 sequence (whole entry): T1 sequence (P35475 whole entry)

[3] = biological target: T2, Alpha-L-iduronidase (Homo sapiens); assay: Stabilization of human recombinant alpha-L-iduronidase in human GM01391 cells assessed as increase in IDUA activity at 100 uM incubated for 1 day followed by 1 day washout; type: cell-based
Alpha-L-iduronidase [4] = biological target: T1, Alpha-L-iduronidase; assay: Inhibition of alpha-L-iduronidase (unknown origin) assessed as inhibition constant
Alpha-L-iduronidase [5] = biological target: T1, Alpha-L-iduronidase; assay: Inhibition of human recombinant alpha-L-iduronidase using 4-methylumbelliferyl-alpha-iduronide as fluorogenic substrate
[6] = biological target: T2, Alpha-L-iduronidase (Homo sapiens); assay: Inhibition of human recombinant alpha-L-iduronidase using 4-methylumbelliferyl-alpha-L-iduronide as fluorogenic substrate at 0.1 mM relative to control
[7] = biological target: T2, Alpha-L-iduronidase (Homo sapiens); assay: Stabilization of human recombinant alpha-L-iduronidase in human GM01391 cells assessed as fold increase in IDUA activity at 100 uM incubated for 1 day followed by 1 day washout relative to control; type: cell-based
Alpha-L-iduronidase [8] = biological target: T1, Alpha-L-iduronidase; assay: Inhibition of human seminal fluid alpha-L-iduronidase using 4-methylumbelliferyl-alpha-L-idosiduronic acid as substrate incubated for 1 hr by fluorescence based assay
Alpha-L-iduronidase [9] = biological target: T1, Alpha-L-iduronidase; assay: Inhibition of human recombinant alpha-L-iduronidase using 4-methylumbelliferyl-alpha-iduronide as fluorogenic substrate assessed as inhibition constant by Lineweaver-Burk plot analysis
[10] = biological target: T2, Alpha-L-iduronidase (Homo sapiens); assay: Stabilization of human recombinant alpha-L-iduronidase in human GM01391 cells assessed as reduction in heparan sulfate level at 500 uM incubated for 1 day followed by 1 day washout; type: cell-based
[11] = biological target: T2, Alpha-L-iduronidase (Homo sapiens); assay: Stabilization of human recombinant alpha-L-iduronidase in human GM02846 cells assessed as increase in IDUA activity incubated for 1 day followed by 1 day washout; type: cell-based; conditions: dose 10-500 µM
[12] = biological target: T2, Alpha-L-iduronidase (Homo sapiens); assay: Stabilization of human recombinant alpha-L-iduronidase in human GM01391 cells assessed as fold increase in IDUA activity at 500 uM measured after 9 days relative to control; type: cell-based; conditions: time 9.0 day
[13] = biological target: T2, Alpha-L-iduronidase (Homo sapiens); assay: Stabilization of human recombinant alpha-L-iduronidase in human GM02846 cells assessed as reduction in heparan sulfate level at 10 to 500 uM incubated for 1 day followed by 1 day washout; type: cell-based; conditions: dose 10-500 µM
[14] = biological target: T2, Alpha-L-iduronidase (Homo sapiens); assay: Stabilization of human recombinant alpha-L-iduronidase in human GM01391 cells assessed as fold increase in IDUA activity at 500 uM incubated for 1 day followed by 1 day washout relative to control; type: cell-based

## O=C(O)[C@H]1[C@@H](O)[C@H](O)[C@@H](O)c2nnnn21
Alpha-L-iduronidase [1]
  Ki: 1300 µM

## NCC[C@@H]1N[C@@H](C(=O)O)[C@@H](O)[C@H](O)[C@H]1O
[2]
  inhibition: < 10%
[3]
  Activity: inactive

## O=C(Cc1cccc(OP(=O)(O)O)c1)NCC[C@@H]1N[C@@H](C(=O)O)[C@@H](O)[C@H](O)[C@H]1O
[2]
  inhibition: < 10%
[3]
  Activity: inactive

## O=C(O)[C@]1(F)O[C@@H](F)[C@H](O)[C@@H](O)[C@@H]1O
Alpha-L-iduronidase [4]
  Ki: 1.2 µM

## O=C(Cc1ccc(OP(=O)(O)O)cc1)NCC[C@@H]1O[C@@H](C(=O)O)[C@@H](O)[C@H](O)[C@H]1O
Alpha-L-iduronidase [5]
  IC50: 5.4 µM
[3]
  Activity: Active

## O=C(/C=C/c1ccccc1)NCc1cn([C@@H]2O[C@@H](C(=O)O)[C@@H](O)[C@H](O)[C@H]2O)nn1
[6]
  inhibition: 74%

## O=C(Cc1cccc(OP(=O)(O)O)c1)NCC[C@@H]1O[C@@H](C(=O)O)[C@@H](O)[C@H](O)[C@H]1O
Alpha-L-iduronidase [5]
  IC50: 4 µM
[7]
  fold change (FC): 1.6

## O=C(Cc1ccc(OP(=O)(O)O)cc1)NCC[C@@H]1N[C@@H](C(=O)O)[C@@H](O)[C@H](O)[C@H]1O
[2]
  inhibition: < 10%
[3]
  Activity: inactive

## O=C1N[C@@H](C(=O)O)[C@@H](O)[C@H](O)[C@H]1O
Alpha-L-iduronidase [1]
  Ki: 94 µM

## O=C(Cc1ccccc1OP(=O)(O)O)NCC[C@@H]1N[C@@H](C(=O)O)[C@@H](O)[C@H](O)[C@H]1O
[2]
  inhibition: 43%
[3]
  Activity: inactive

## O=C(Cc1ccccc1OP(=O)(O)O)NCC[C@@H]1O[C@@H](C(=O)O)[C@@H](O)[C@H](O)[C@H]1O
Alpha-L-iduronidase [5]
  IC50: 1 µM
[3]
  Activity: inactive

## O=C1O[C@H]([C@@H](O)C(=O)O)[C@H](O)[C@H]1O
Alpha-L-iduronidase [8]
  IC50: 40 µM

## NCC[C@@H]1O[C@@H](C(=O)O)[C@@H](O)[C@H](O)[C@H]1O
Alpha-L-iduronidase [5]
  IC50: 6.7 µM
Alpha-L-iduronidase [9]
  Ki: 4 µM
[10]
  Activity: Active
[11]
  Activity: Dose-Dependent Effect
[7]
  fold change (FC): 1.4
[12]
  fold change (FC): > 1.6
[13]
  Activity: Active
[14]
  fold change (FC): 3
